Like-named read-outs stand apart in the source and are kept apart here.
Legend:
[1] = design: species or system Yucatan mini pigs; settings: pig, in vivo; for tmax: sc
Method: The pharmacokinetics (PK) of regular insulin, when subcutaneously administered at two different concentrations, both alone and co-administered with rHuPH20, was assessed in the porcine model described in Example 10, above. A multiple dose 4-way crossover design study was conducted to compare the PK of regular insulin at concentrations of 20 and 100 U/mL, when administered alone, to the same two concentrations after co-administration with rHuPH20. In each case, a total of 0.2 U/kg of insulin was administered.
Four test articles were prepared for dosing. […] The Insulin-PH20 U100 test article contained 3.69 mg/mL (100 U/mL) regular insulin (Lot # SIHR107; Diosynth Biotechnologies) and 20 μg/mL (approximately 2400 U/mL) rHuPH20 in 25 mM Tris, 120 mM NaCl, 0.01% Polysorbate 80, pH 7.3.
The group assignment was maintained for cycles 1 and 2.
The serum IRI concentrations were determined for each serum sample by interpolation from a standard curve using StatLIA® assay analysis software (Brendan Technologies, Carlsbad, Calif.). […] These baselines were then subtracted from the actual IRI concentrations measured at each timepoint to determine the baseline-adjusted IRI concentration.
Serum IRI versus time data were modeled by non-compartmental analysis using WinNonlin Professional model 200 (Version 5.2, Pharsight Corp., Mountain View, Calif.) and the PK parameters calculated. […] All analyses were performed using a mixed model with fixed effects for treatment. A compound symmetric covariance matrix among repeated observations for each animal was assumed. Analyses for Cmax and all AUC endpoints were performed using log-transformed values with values of zero replaced by 1 prior to log transformation (zero on the log scale). The time based endpoints were analyzed on the original linear scale.
N=16 pigs unless otherwise noted.

[2] = background, cited from earlier work
[3] = system: plasma glucose (glucose infusion rate to maintain 90-110 mg/dL); assay: Glucose infusion rate (GIR) pharmacodynamics, Hyperinsulinemic-Euglycemic Clamp (Example 1a); format: in vivo, human; settings: Mean
Method: The procedure consisted of initially obtaining the subject's weight and height and measuring the vital signs after resting in a sitting position for 5 minutes. Both arms were placed in heating pads to dilate the veins and IV catheters were then inserted. A catheter was placed into the antecubital vein of one arm for infusion of Dextrose 20% via two separate stop cocks. The other […] catheter was placed into the other arm for sampling of arterialized blood for glucose measurements. The heating pad can be removed from the glucose infusion site, but the retrograde catheter site was maintained at 65° C. An initial blood sample was obtained to measure baseline glucose 30 minutes before injection of the insulin preparations.

[4] = system: dispersion of trypan blue dye; assay: Trypan blue dye dispersion assay in mice (Example 9); format: in vivo, NCr nu/nu homozygous mice; settings: for Dye Dispersion Areas: intradermal, trypan blue with 5 Units/mL Humulin insulin, enzyme 10 U/mL (Chondroitinase AC 1 U/mL, Strep lyase 100 U/mL), group mean; for increase in dye dispersion area compared to buffer only: mixed with trypan blue and Humulin insulin
Method: (§1) The ability of different hyaluronan degrading enzymes to act as a dispersion agent was assessed in vivo. A dispersion assay in mice was used to assess the ability of different hyaluronan degrading enzyme to act as dispersion agents of trypan blue, and also to assess the ability of the enzymes to enhance the efficacy of co-administered insulin in reducing blood glucose levels. The hyaluronan degrading enzymes assayed included rHuPH20, pegylated PH20 (PEG PH20), Hyal 1, Chondroitinase ABC, Chondroitinase AC and Streptomyces hyalurolyticus lyase. […] Both the area of dispersion of the trypan blue and the blood glucose levels were then measured. […] The ability of a low pH buffer (pH 4.5) to act as a dispersion agent also was examined.
(§2) Nine groups of NCr nu/nu homozygous mice, approximately 10 weeks of age and with body weights of 21-25 g, with 3 mice per group, were anesthetized by intraperitoneal injection of ketamine/xylazine (10:1 mixture in saline). […] The dispersion of the trypan blue dye was then measured by a caliper at 2.5, 5, 10, 15 and 20 minutes post injection. The dye dispersion area (mm^2) was calculated by multiplying the longest axis M1 (length of the dye front) and M2 (width of the dye front) by ¼π (M1M2×¼π). The blood glucose levels were measured using a glucometer at 0, 5, 10, 15 and 20 minutes

blood glucose = assay: Blood glucose levels in mice after intradermal Humulin insulin with hyaluronan degrading enzymes (Example 9); format: in vivo, NCr nu/nu homozygous mice; settings: for Blood Glucose Level: group mean
Method: as §1, §2

[5] = 5 min post injection, intradermal with 5 Units/mL Humulin insulin, enzyme 10 U/mL (Chondroitinase AC 1 U/mL, Strep lyase 100 U/mL)
[6] = 10 min post injection, intradermal with 5 Units/mL Humulin insulin, enzyme 10 U/mL (Chondroitinase AC 1 U/mL, Strep lyase 100 U/mL)
[7] = 15 min post injection, intradermal with 5 Units/mL Humulin insulin, enzyme 10 U/mL (Chondroitinase AC 1 U/mL, Strep lyase 100 U/mL)
[8] = 20 min post injection, intradermal with 5 Units/mL Humulin insulin, enzyme 10 U/mL (Chondroitinase AC 1 U/mL, Strep lyase 100 U/mL)

Insulin U100: Undiluted Humulin R insulin, 100 U/mL
AUC0-15 [1]: 20 pmol·min/L | AUC0-30 [1]: 222 pmol·min/L | AUClast [1]: 9,021 pmol×min/L | tmax [1]: 1.07 h

Insulin U20: Humulin R insulin diluted 1:5 with sterile diluent to 20 U/mL
AUC0-15 [1]: 80 pmol·min/L | AUC0-30 [1]: 791 pmol·min/L | AUClast [1]: 20,820 pmol×min/L | tmax [1]: 0.95 h

insulin glargine
Duration [2]: 28 h | Onset [2]: 4 to 6 h | Peak [2]: 18 to 28 h

insulin glulisine
Duration [2]: 3 to 4 h | Peak [2]: 0.75 to 1.5 h | Onset ([2]; subcutaneous insulin): 0.083 to 0.25 h

Insulin 100 U
tmax [1]: 1.07 ± 0.817 h

Humalog ® alone
GIR AUC 0-60 min ([3]; Dosing Sequence 1): 1910 min * mL/hr | GIR AUC 0-120 min ([3]; Dosing Sequence 1): 9860 min * mL/hr | GIR AUC 0-180 min ([3]; Dosing Sequence 1): 20700 min * mL/hr | GIR AUC 0-240 min ([3]; Dosing Sequence 1): 32580 min * mL/hr | GIR AUC 0-360 min ([3]; Dosing Sequence 1): 51650 min * mL/hr | tmax ([3]; Dosing Sequence 1): 185 | GIR AUC 0-60 min ([3]; Dosing Sequence 2): 2260 min * mL/hr | GIR AUC 0-120 min ([3]; Dosing Sequence 2): 9670 min * mL/hr | GIR AUC 0-180 min ([3]; Dosing Sequence 2): 19220 min * mL/hr | GIR AUC 0-240 min ([3]; Dosing Sequence 2): 29120 min * mL/hr | GIR AUC 0-360 min ([3]; Dosing Sequence 2): 44730 min * mL/hr | tmax ([3]; Dosing Sequence 2): 200 | GIR AUC 0-60 min ([3]; Dosing Sequence all): 2080 min * mL/hr | GIR AUC 0-120 min ([3]; Dosing Sequence all): 9760 min * mL/hr | GIR AUC 0-180 min ([3]; Dosing Sequence all): 19960 min * mL/hr | GIR AUC 0-240 min ([3]; Dosing Sequence all): 30850 min * mL/hr | GIR AUC 0-360 min ([3]; Dosing Sequence all): 48190 min * mL/hr | tmax ([3]; Dosing Sequence all): 193

Chondroitinase ABC
Dye Dispersion Areas ([4]; 5 min post injection): 75.06 mm^2 | average dispersion area of trypan blue dye ([4]; 5 minutes after injection): ~75 mm^2 | Dye Dispersion Areas ([4]; 10 min post injection): 78.60 mm^2 | average dispersion area of trypan blue dye ([4]; 10 minutes after injection): ~79 mm^2 | Dye Dispersion Areas ([4]; 15 min post injection): 81.44 mm^2 | average dispersion area of trypan blue dye ([4]; 15 minutes after injection): ~81 mm^2 | Dye Dispersion Areas ([4]; 20 min post injection): 87.85 mm^2 | average dispersion area of trypan blue dye ([4]; 20 minutes after injection): ~88 mm^2 | average dispersion area of trypan blue dye ([4]; […] after injection): about 57 mm^2 | Dye Dispersion Areas ([4]; […] post injection): 56.85 mm^2 | increase in dye dispersion area compared to buffer only [4]: significant increase | Blood Glucose Level (blood glucose; 0 min (prior to injection)): 129.67 mg/dL | Blood Glucose Level (blood glucose; [5]): 123.67 mg/dL | Blood Glucose Level (blood glucose; [6]): 65.00 mg/dL | Blood Glucose Level (blood glucose; [7]): 44.67 mg/dL | Blood Glucose Level (blood glucose; [8]): 21.00 mg/dL | reduction of blood glucose levels compared with Humulin insulin alone (blood glucose; co-administered with Humulin insulin): appeared to reduce levels even faster

detemir: Long-lasting insulin, an analog
Duration [2]: 28 h | Onset [2]: 4 to 6 h | Peak [2]: 18 to 28 h

Insulin 20 U
tmax [1]: 0.95 ± 0.7 h

B1: Hyal 1: Hyaluronan degrading enzyme; acid-active human hyaluronidase (protein, listed as Homo sapiens)
chain: MAAHLLPICALFLTLLDMAQGFRGPLLPNRPFTTVWNANTQWCLERHGVDVDVSVFDVVANPGQTFRGPDMTIFYSSQLGTYPYYTPTGEPVFGGLPQNASLIAHLARTFQDILAAIPAPDFSGLAVIDWEAWRPRWAFNWDTKDIYRQRSRALVQAQHPDWPAPQVEAVAQDQFQGAARAWMAGTLQLGRALRPRGLWGFYGFPDCYNYDFLSPNYTGQCPSGIRAQNDQLGWLWGQSRALYPSIYMPAVLEGTGKSQMYVQHRVAEAFRVAVAAGDPNLPVLPYVQIFYDTTNHFLPLDELEHSLGESAAQGAAGVVLWVSWENTRTKESCQAIKEYMDTTLGPFILNVTSGALLCSQALCSGHGRCVRRTSHPKALLLLNPASFSIQLTPGGGPLSLRGALSLEDQAQMAVEFKCRCYPGWQAPWCERKSMW
modifications: Hyaluronidase-1 [Precursor]
increase in dye dispersion area compared to buffer only [4]: no statistically significant increase

B2: Hyal I (protein, UniProt Q12794 22-435, looked up)
Hyaluronidase-1: FRGPLLPNRPFTTVWNANTQWCLERHGVDVDVSVFDVVANPGQTFRGPDMTIFYSSQLGTYPYYTPTGEPVFGGLPQNASLIAHLARTFQDILAAIPAPDFSGLAVIDWEAWRPRWAFNWDTKDIYRQRSRALVQAQHPDWPAPQVEAVAQDQFQGAARAWMAGTLQLGRALRPRGLWGFYGFPDCYNYDFLSPNYTGQCPSGIRAQNDQLGWLWGQSRALYPSIYMPAVLEGTGKSQMYVQHRVAEAFRVAVAAGDPNLPVLPYVQIFYDTTNHFLPLDELEHSLGESAAQGAAGVVLWVSWENTRTKESCQAIKEYMDTTLGPFILNVTSGALLCSQALCSGHGRCVRRTSHPKALLLLNPASFSIQLTPGGGPLSLRGALSLEDQAQMAVEFKCRCYPGWQAPWCERKSMW
Dye Dispersion Areas ([4]; 5 min post injection): 36.27 mm^2 | Dye Dispersion Areas ([4]; 10 min post injection): 39.60 mm^2 | Dye Dispersion Areas ([4]; 15 min post injection): 46.41 mm^2 | Dye Dispersion Areas ([4]; 20 min post injection): 48.21 mm^2 | Dye Dispersion Areas ([4]; […] post injection): 31.53 mm^2 | Blood Glucose Level (blood glucose; 0 min (prior to injection)): 155.67 mg/dL | Blood Glucose Level (blood glucose; [5]): 201.33 mg/dL | Blood Glucose Level (blood glucose; [6]): 144.33 mg/dL | Blood Glucose Level (blood glucose; [7]): 77.00 mg/dL | Blood Glucose Level (blood glucose; [8]): 52.67 mg/dL
